Measured values reported in US12459921B2, “Isoindoline compound, preparation method, pharmaceutical composition and use thereof” (SHANGHAI INSTITUTE OF MATERIA MEDICA, CHINESE ACADEMY OF …, priority 2018, dated 2025).

System: MM.1S cells
Assay: Inhibitory effect on the proliferation of MM.1S, MTS cell viability test
Assay type: cell-based
Conditions: Homo sapiens, MM1.S, 168 h, multiple myeloma MM.1S cells, 7 days incubation, read-out: Tumor cell inhibitory activity
Description: Method of tumor cell proliferation inhibition test: the inventors tested all the example compounds on hematologic tumor cells, multiple myeloma MMTs cell line and acute leukemia cell MV-4-11 cell line of some examples. The activity test method and results are as follows.
1. The Compound's Inhibitory Effect on the Proliferation of MM.1S, MTS Cell Viability Test:
MM.1S cells were cultured and collected with 1640 plus 10% fetal bovine serum. The cell concentration was diluted according to 7 days, and 180 ul cell suspension was added to each well of the 96-well cell plate to 20,000 cells. 20 ul of DMSO with a final concentration of 0.2% was added to the control wells. The compound was 5-fold diluted—from the 10 mM stock solution, and 20 ul was also added to each compound cell well (the final concentration of DMSO was 0.2%). The cells were placed in a 37° C., 5% CO2 incubator to incubate for 7 days. After the reaction solution was prepared according to the MTS kit (Promega, G5430), 20 μL was added to each well and incubated in a 37° C., 5% CO2 incubator for 3-4 h. Absorbance value at 490 nm was read with a microtiter plate, and 690 nm absorbance value was used as the background value. OD490-OD690 was used as the final initial data. The formula for calculating the inhibition rate of the compound is: inhibition rate=(ODDMSO-ODcompound)/(ODDMSO-Oblank)×100%. The compound's proliferation inhibition IC50 was fitted by Graph Pad Prism 5.0. The experiment was repeated three times, and the average and standard deviation was calculated according to the three parallel experiments.
Cell viability test results: **** represents cell viability IC50>20 μM, […] represents cell viability 1 μM<IC50<20 μM, ** represents cell viability 100 nM<IC50<1 μM, * represents cell viability IC50<100 nM.

SMILES	IC50
O=C1CCC(N2Cc3c(CCCCCN4CCN(c5ccnc6ccccc56)CC4)cccc3C2=O)C(=O)N1 (centres unmarked) [Example 24, 3-(1-oxo-4-(5-(4-(quinoline-4-)piperazine-1-)pentyl)isoindoline-2-)piperidine-2,6-dione]	< 100 nM
CC(=O)N[C@@H](CCCc1cccc2c1CN(C1CCC(=O)NC1=O)C2=O)C(=O)N[C@H](C)c1ccccc1 (stereo partly drawn) [Example 169, (2S)-2-acetylamino-5-(2-(2,6-dioxopiperidine-3-)-1-oxoisoindoline-4-)-N—((R)-1-phenethyl)pentanoamide]	< 100 nM
N#CC1(c2c(Cl)cccc2Cl)CCN(CCCOc2cccc3c2CN(C2CCC(=O)NC2=O)C3=O)CC1 (centres unmarked) [Example 76, 4-(2,6-chlorophenyl)-1-(3-((2-(2,6-dioxopiperidine-3-)-1-oxoisoindoline-4-)oxy)propyl)piperidine-4-carbonitrile]	< 100 nM
N#CC1(c2cccc(F)c2)CCN(CCCOc2cccc3c2CN(C2CCC(=O)NC2=O)C3=O)CC1 (centres unmarked) [Example 63, 1-(3-((2-(2,6-dioxopiperidine-3-)-1-oxoisoindoline-4-)oxy)propyl)-4-(3-fluorophenyl)piperidine-4-carbonitrile]	100 to 1000 nM
O=C1CCC(N2Cc3c(CCCCN4CCC(c5noc6cc(F)ccc56)CC4)cccc3C2=O)C(=O)N1 (centres unmarked) [Example 227, 3-(4-(4-(4-(6-fluorobenzisoxazole-3-yl)piperidin-1-yl)butyl)-1-oxoisoindoline-2-yl)piperidine-2,6-dione]	1000 to 20000 nM
O=C1CCC(N2Cc3c(OCCCCOc4ccnc5ccccc45)cccc3C2=O)C(=O)N1 (centres unmarked) [Example 6, 3-(1-oxo-4-(4-(quinoline-4-oxy)butoxy)isoindoline-2-)piperidine-2,6-dione]	< 100 nM
N#CC1(c2ccc(C(F)(F)F)cc2)CCN(CCCCCc2cccc3c2CN(C2CCC(=O)NC2=O)C3=O)CC1 (centres unmarked) [Example 271, 1-(5-(2-(2,6-dioxopiperidin-3-yl)-1-oxoisoindolin-4-yl)pentyl)-4-(4-(trifluoromethyl)phenyl)piperidine-4-carbonitrile]	1000 to 20000 nM
COc1ccc(C2(C#N)CCN(CCCCc3cccc4c3CN(C3CCC(=O)NC3=O)C4=O)CC2)c(Cl)c1 (centres unmarked) [Example 245, 4-(2-chloro-4-methoxyphenyl)-1-(4-(2-(2,6-dioxopiperidine-3-yl)-1-oxoisoindoline-4-yl)butyl)piperidine-4-carbonitrile]	100 to 1000 nM
O=C1CCC(N2Cc3c(CCCCCOc4ccnc5ccccc45)cccc3C2=O)C(=O)N1 (centres unmarked) [Example 1, 3-(1-oxo-4-(5-(quinoline-4-oxy)pentyl)isoindoline-2-)piperidine-2,6-dione]	< 100 nM
O=C1CCC(N2Cc3c(OCCCCC(=O)N4CCC5(CC4)OCc4ccc(Cl)cc45)cccc3C2=O)C(=O)N1 (centres unmarked) [Example 152, 3-(4-((5-(6-chloro-3H-spiro[isobenzofuran-1,4′-piperidine]-1′-)-5-oxopentyl)oxy)-1-oxoisoindoline-2-)piperidine-2,6-dione]	< 100 nM
O=C1CCC(N2Cc3c(CCCCCN4CCC5(CC4)OCCc4ccccc45)cccc3C2=O)C(=O)N1 (centres unmarked) [Example 137, 3-(1-oxo-4-(5-(spiro[isochroman-1,4′-piperidine]-1′-)pentyl)isoindoline-2-)piperidine-2,6-dione]	100 to 1000 nM
O=C1CCC(N2Cc3c(CCCCN4CCN(c5nsc6ccccc56)CC4)cccc3C2=O)C(=O)N1 (centres unmarked) [Example 230, 3-(4-(4-(4-(benzisothiazol-3-yl)piperazine-1-yl)butyl)-1-oxoisoindoline-2-yl) piperidine-2,6-dione]	1000 to 20000 nM
N#CC1(c2ccccc2Cl)CCN(CCCOc2cccc3c2CN(C2CCC(=O)NC2=O)C3=O)CC1 (centres unmarked) [Example 55, 4-(2-chlorophenyl)-1-(3-((2-(2,6-dioxopiperidine-3-)-1-oxoisoindoline-4-)oxy)propyl)piperidine-4-carbonitrile]	< 100 nM
Cc1ccc(NC(=O)NCCOc2cccc3c2CN(C2CCC(=O)NC2=O)C3=O)cc1Cl (centres unmarked) [Example 160, 1-(3-chloro-4-methylphenyl)-3-(2-((2-(2,6-dioxopiperidine-3-)-1-oxoisoindoline-4-)oxy)ethyl)ure]	< 100 nM
